Assay results: EP4759807A1, “PROTEOLYSIS TARGETING CHIMERA COMPOUND FOR DEGRADING IRAK4 AND USE THEREOF” (Shenzhen Zhongge Biological Technology Co., Ltd., priority 2023, dated 2025)
Where two headings read alike, the source gives them in different places.

Target: T1, IRAK4 (Homo sapiens, UniProt Q9NWZ3)
T1 sequence (Q9NWZ3 1-460): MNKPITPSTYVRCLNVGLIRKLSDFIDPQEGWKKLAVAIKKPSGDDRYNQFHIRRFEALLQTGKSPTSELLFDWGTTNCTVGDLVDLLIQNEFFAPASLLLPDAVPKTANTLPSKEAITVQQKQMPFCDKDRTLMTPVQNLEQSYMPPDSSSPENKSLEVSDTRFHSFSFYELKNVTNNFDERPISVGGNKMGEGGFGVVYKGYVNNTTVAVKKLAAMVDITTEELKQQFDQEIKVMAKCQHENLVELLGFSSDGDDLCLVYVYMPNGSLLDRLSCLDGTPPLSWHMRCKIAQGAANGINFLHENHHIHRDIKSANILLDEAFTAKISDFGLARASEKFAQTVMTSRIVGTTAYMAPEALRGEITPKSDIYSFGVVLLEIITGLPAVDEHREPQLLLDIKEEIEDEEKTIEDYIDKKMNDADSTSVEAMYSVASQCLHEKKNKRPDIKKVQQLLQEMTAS
Assay: Hibit fluorescence detection of proteolysis (IRAK4-HiBiT in HEK293T cells)
Type: cell-based
Design: host or cells: HEK293T (ATCC)
Conditions: for Dmax: HEK-293T
In short: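 Degradation read-out: luminescence from lytic HiBiT detection (15 min, room temperature) after 24 h compound exposure (37 °C, 5% CO2) of HEK293T cells transiently expressing IRAK4 fused to a HiBiT tag. Data fitted to a bell-shaped four-parameter model giving two EC50 values.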

[1] = IRAK4-HiBiT, HEK293T cells, 24 h
[2] = IRAK4-HiBiT, HEK293T cells, 24 h, read-out: Dmax
[3] = IRAK4-HiBiT, HEK293T cells, 24 h, read-out: DC50

## NC(=O)c1cnn2c(-c3cn(-c4cn([C@H]5CC[C@H](CN6CC7(CC(CCNc8cccc9c8C(=O)N(C8CCC(=O)NC8=O)C9=O)C7)C6)CC5)nc4C(F)F)nn3)ccc2c1 (stereo partly shown) [Example 76, 7-(1-(3-(difluoromethyl)-1-((1r,4r)-4-((6-(2-((2-(2,6-dioxopiperidin-3-yl)-1,3-dioxoisoindolin-4-yl)amino)ethyl)-2-azaspiro[3.3]hept-2-yl)methyl)cyclohexyl)-1H-pyrazol-4-yl)-1H-1,2,3-triazol-4-yl)pyrrolo[1,2-b]pyridazine-3-carboxamide]
  Dmax: < 60%
[1]
  DC50: < 0.5 nM

## NC(=O)c1cnn2c(-c3cn(-c4cn(C5CCN(CC6CCC7(CC6)CCN(C(=O)c6ccc(Cl)c(N8CCC(=O)NC8=O)c6)CC7)CC5)nc4C(F)F)nn3)ccc2c1 [Example 77]
  Dmax: 70 to 80%
[1]
  DC50: 0.5 to 1 nM

## O=C1CCC(N2C(=O)c3ccc(N4CC(CN5CCC(n6cc(-n7cc(-c8cnn9ccc(N%10CCOCC%10)nc89)nn7)c(C(F)F)n6)CC5)C4)cc3C2=O)C(=O)N1 (stereo not shown) [Example 78]
  Dmax: 70 to 80%
[1]
  DC50: 1 to 5 nM

## Cn1c(=O)n(C2CCC(=O)NC2=O)c2cccc(C#CC3CCN(C[C@H]4CC[C@H](n5cc(-n6cc(-c7ccc8cc(C(N)=O)cnn78)nn6)c(C(F)F)n5)CC4)CC3)c21 (stereo partly shown) [Example 79]
  Dmax: 70 to 80%
[1]
  DC50: 0.5 to 1 nM

## Cn1c(=O)n(C2CCC(=O)NC2=O)c2cccc(N3CCC4(CCN(C[C@H]5CC[C@H](n6cc(-n7cc(-c8ccc9cc(C(N)=O)cnn89)nn7)c(C(F)F)n6)CC5)C4)C3)c21 (stereo partly shown) [Example 80, 7-(1-(3-(difluoromethyl)-1-((1r,4r)-4-(7-(1-(2,6-dioxy-3-yl)-3-methyl-2-oxo-2,3-dihydro-1H-benzo[d]imidazol-4-yl)-2,7-diazaspiro[4.4]non-2-yl)methyl)-1H-pyrazol-4-yl)-1H-1,2,3-triazol-4-yl)pyrrolo[1,2-b]pyridazine-3-carboxamide]
  Dmax: > 80%
[1]
  DC50: < 0.5 nM

## Cn1c(=O)n(C2CCC(=O)NC2=O)c2cccc(N3CC4CN(C[C@H]5CC[C@H](n6cc(-n7cc(-c8ccc9cc(C(N)=O)cnn89)nn7)c(C(F)F)n6)CC5)CC4C3)c21 (stereo partly shown) [Example 81]
  Dmax: > 80%
[1]
  DC50: < 0.5 nM

## Cn1c(=O)n(C2CCC(=O)NC2=O)c2cccc(C3CN(C4CCN(C[C@H]5CC[C@H](n6cc(-n7cc(-c8ccc9cc(C(N)=O)cnn89)nn7)c(C(F)F)n6)CC5)CC4)C3)c21 (stereo partly shown) [Example 82]
  Dmax: > 80%
[1]
  DC50: < 0.5 nM

## Cn1c(=O)n(C2CCC(=O)NC2=O)c2cccc(C3CN(C4CN(C[C@H]5CC[C@H](n6cc(-n7cc(-c8ccc9cc(C(N)=O)cnn89)nn7)c(C(F)F)n6)CC5)C4)C3)c21 (stereo partly shown) [Example 83]
  Dmax: 70 to 80%
[1]
  DC50: < 0.5 nM

## Cn1c(=O)n(C2CCC(=O)NC2=O)c2cccc(N3CC4CCC(C3)N4C[C@H]3CC[C@H](n4cc(-n5cc(-c6ccc7cc(C(N)=O)cnn67)nn5)c(C(F)F)n4)CC3)c21 (stereo partly drawn) [Example 86, 7-(1-(3-(difluoromethyl)-1-((1R,4R)-4-(3-(1-(2,6-dioxy-3-yl)-3-methyl-2-oxo-2,3-dihydro-1H-benzo[d]imidazol-4-yl)-3,8-diazabicyclo[3.2.1]oct-8-yl)methyl)cyclohexyl-1H-pyrazol-4-yl)-1H-1,2,3-triazol-4-yl)pyrrolo[1,2-b]pyridazine-3-carboxamide]
  Dmax: > 80%
[1]
  DC50: 1 to 5 nM

## Cn1c(=O)n(C2CCC(=O)NC2=O)c2cccc(C#CC3CN(C[C@H]4CC[C@H](n5cc(-n6cc(-c7ccc8cc(C(N)=O)cnn78)nn6)c(C(F)F)n5)CC4)C3)c21 (stereo partly shown) [Example 87]
  Dmax: 70 to 80%
[1]
  DC50: 0.5 to 1 nM

## Cn1c(=O)n(C2CCC(=O)NC2=O)c2cccc(N3CCOC4(CCN(C[C@H]5CC[C@H](n6cc(-n7cc(-c8ccc9cc(C(N)=O)cnn89)nn7)c(C(F)F)n6)CC5)CC4)C3)c21 (stereo partly shown) [Example 88]
  Dmax: 70 to 80%
[1]
  DC50: < 0.5 nM

## Cn1c(=O)n(C2CCC(=O)NC2=O)c2cccc(N3CCC4(CC3)CN(C[C@H]3CC[C@H](n5cc(-n6cc(-c7ccc8cc(C(N)=O)cnn78)nn6)c(C(F)F)n5)CC3)CCO4)c21 (stereo partly shown) [Example 89, 7-(1-(3-(difluoromethyl)-1-((1r,4r)-4-((9-(1-(2,6-dioxopiperidin-3-yl)-3-methyl-2-oxo-2,3-dihydro-1H-benzo[d]imidazol-4-yl)-1-oxa-4,9-diazaspiro[5.5]undecan-4-yl)methyl)cyclohexyl)-1H-pyrazol-4-yl)-1H-1,2,3-triazol-4-yl)pyrrolo[1,2-b]pyridazine-3-carboxamide]
  Dmax: > 80%
[1]
  DC50: 0.5 to 1 nM

## Cn1c(=O)n(C2CCC(=O)NC2=O)c2cccc(NC(=O)N3CCC4(CCN(C[C@H]5CC[C@H](n6cc(-n7cc(-c8ccc9cc(C(N)=O)cnn89)nn7)c(C(F)F)n6)CC5)C4)CC3)c21 (stereo partly shown) [Example 90, 2-(((1r,4r)-4-(4-(4-(3-carbamoylpyrrolo[1,2-b]pyridazin-7-yl)-1H-1,2,3-triazol-1-yl) -3-(difluoromethyl)-1H-pyrazol-1-yl)cyclohexyl)methyl)-N-(1-(2,6-dioxopiperidin-3-yl)-3-methyl-2-oxo-2,3-dihydro-1H-benzo[d]imidazol-4-yl)-2,8-diazaspiro[4.5]decan-8-carboxamide]
  Dmax: 70 to 80%
[1]
  DC50: > 5 nM

## Cn1c(=O)n(C2CCC(=O)NC2=O)c2cccc(N3CCC(N4CCN(C[C@H]5CC[C@H](n6cc(-n7cc(-c8ccc9cc(C(N)=O)cnn89)nn7)c(C(F)F)n6)CC5)CC4)CC3)c21 (stereo partly shown) [Example 91, 7-(1-(3-(difluoromethyl)-1-((1r,4r)-4-((4-(1-(1-(2,6-dioxopiperidin-3-yl)-3-methyl-2-oxo-2,3-dihydro-1H-benzo[d]imidazol-4-yl)piperidin-4-yl)piperazin-1-yl)methyl)cyclohexyl)-1H-pyrazol-4-yl)-1H-1,2,3-triazol-4-yl)pyrrolo[1,2-b]pyridazine-3-carboxamide]
  Dmax: > 80%
[1]
  DC50: < 0.5 nM

## Cn1c(=O)n(C2CCC(=O)NC2=O)c2cccc(N3C4CCC3CN(C[C@H]3CC[C@H](n5cc(-n6cc(-c7ccc8cc(C(N)=O)cnn78)nn6)c(C(F)F)n5)CC3)C4)c21 (stereo partly shown) [Example 92, 7-(1-(3-(difluoromethyl)-1-((1r,4r)-4-(8-(1-(2,6-dioxopiperidin-3-yl)-3-methyl-2-oxo-2,3-dihydro-1H-benzo[d]imidazol-4-yl)-3,8-diazabicyclo[3.2.1]oct-3-yl)methyl)cyclohexyl-1H-pyrazol-4-yl)-1H-1,2,3-triazol-4-yl)pyrrolo[1,2-b]pyridazine-3-carboxamide]
  Dmax: > 80%
[1]
  DC50: 1 to 5 nM

## NC(=O)c1cnn2c(-c3cn(-c4cn(C5CCN(CCN6CCN(c7ccc8c(c7)C(=O)N(C7CCC(=O)NC7=O)C8=O)CC6)CC5)nc4C(F)F)nn3)ccc2c1 (stereo not shown) [Example 93]
  Dmax: 70 to 80%
[1]
  DC50: 1 to 5 nM

## NC(=O)c1cnn2c(-c3cn(-c4cn(C5CCN(CC6CCN(c7ccc8c(c7)C(=O)N(C7CCC(=O)NC7=O)C8=O)CC6)CC5)nc4C(F)F)nn3)ccc2c1 (stereo not shown) [Example 94, 7-(1-(3-(difluoromethyl)-1-(1-((1-(2-(2,6-dioxopiperidin-3-yl)-1,3-dioxoisoindolin-5-yl)piperidin-4-yl)methyl)piperidin-4-yl)-1H-pyrazol-4-yl)-1H-1,2,3-triazol-4-yl)pyrrolo[1,2-b]pyridazine-3-carboxamide]
[2]
  Dmax: < 60%
[3]
  DC50: < 0.5 nM

## NC(=O)c1cnn2c(-c3cn(-c4cn(C5CCN(CC6CCN(c7ccc(C(=O)NC8CCC(=O)NC8=O)c(F)c7)CC6)CC5)nc4C(F)F)nn3)ccc2c1 (stereo not shown) [Example 95, 7-{1-[3-(difluoromethyl)-1-{1-[(1-{4-[(2,6-dioxopiperidin-3-yl)aminocarbonyl]-3-fluorophenyl}piperidin-4-yl)methyl]piperidin-4-yl}-1H-pyrazol-4-yl]-1H-1,2,3-triazol-4-yl}pyrrolo[1,2-b]pyridazine-3-carboxamide]
[2]
  Dmax: < 60%
[3]
  DC50: > 5 nM

## Cn1c(=O)n(C2CCC(=O)NC2=O)c2cccc(N3CCN(C[C@H]4CC[C@H](n5cc(-n6cc(-n7ccc8cc(C(N)=O)cnc87)nn6)c(C(F)F)n5)CC4)CC3)c21 (stereo partly shown) [Example 100, 1-(1-(3-(difluoromethyl)-1-((1r,4r)-4-((4-(1-(2,6-dioxopiperidin-3-yl)-3-methyl-2-oxo-2,3-dihydro-1H-benzo[d]imidazol-4-yl)piperazin-1-yl)methyl)cyclohexyl)-1H-pyrazol-4-yl)-1H-1,2,3-triazol-4-yl)-1H-pyrrolo[2,3-b]pyridine-5-carboxamide]
  Dmax: 60 to 70%
[1]
  DC50: 0.5 to 1 nM

## Cn1c(=O)n(C2CCC(=O)NC2=O)c2cccc(C3CCN(C[C@H]4CC[C@H](n5cc(-n6cc(-n7ccc8cc(C(N)=O)cnc87)nn6)c(C(F)F)n5)CC4)CC3)c21 (stereo partly shown) [Example 101, 1-(1-(3-(difluoromethyl)-1-((1r,4r)-4-((4-(1-(2,6-dioxopiperidin-3-yl)-3-methyl-2-oxo-2,3-dihydro-1H-benzo[d]imidazol-4-yl)piperidin-1-yl)methyl)cyclohexyl)-1H-pyrazol-4-yl)-1H-1,2,3-triazol-4-yl)-1H-pyrrolo[2,3-b]pyridine-5-carboxamide]
  Dmax: 70 to 80%
[1]
  DC50: < 0.5 nM
